Measured values: patent US6348205B1, “Use of carbonic acid for stabilizing or increasing the epidermal ceramide synthesis rate” (Beiersdorf AG, priority 1997, dated 2002)
Where two headings read alike, the source gives them in different places.

Legend:
[1] = tested on: irritated skin (epidermal permeability barrier)
Procedure: (§1) For the standardized washing, a normal commercially available shampoo which, according to the manufacturer, contains […] active cleansing substances was diluted with distilled water until it contained 10% active cleansing substances in the solution ready for use.
(§2) Tap water was used for the part-affusions with pure water.
(§3) The carbonated water employed was mechanically produced using an impregnation device in which tap water was supplemented with carbon dioxide under elevated pressure.
(§4) All the part-affusions take place at a temperature of 37° C.
(§5) The test was carried out as unilateral test on 20 test subjects (13 women and 7 men between 23 and 28 years of age). The volunteer test subjects were not subjected to any selection conditions apart from right-handedness. For random distribution, one half of the participants was treated with carbonic acid on the right hand and the other half was treated on the left hand.
(§6) Over a period of 2 weeks, the back of one hand of the test subjects was rinsed with carbonic acid for 1 min once a day. The other was rinsed with pure water as control. At the same time, the backs of both hands were repeatedly irritated by a standardized washing with the shampoo solution twice a day.
(§7) The effect of carbonic acid or pure water on the dermatophysiological parameters of irritated skin was measured using noninvasive dermatophysiological investigation methods.
(§8) The transepidermal water loss (TEWL) as a measure of the permeability barrier function was measured using the evaporimetry method. An EP1 evaporimeter (Servomed & Co., Hasselby, Stockholm, Sweden) was used. The relative skin hydration (RSH) was measured using the capacitance measurement method. A CM 820 PC corneometer (Courage & Khazaka Electronic GmbH, Cologne, Germany) was used. The measurements have been reported as mean of 2 recordings (evaporimetry) or 3 recordings (corneometry).
(§9) All the tests took place in the partially air-conditioned dermatophysiology laboratory at Osnabrück University.

irritated skin = conditions: 2 weeks, 1 min rinse once a day, washing with shampoo solution twice a day; backs of hands
Procedure: as §1, §2, §3, §4, §5, §6, §7, §8, §9

[2] = tested on: epidermal ceramide synthesis; conditions: SLS-irritated forearm; for values for the ceramide fraction (peak areas) versus test area treated with pure water: 1 min rinse daily, WILCOXON paired differences test
Procedure: On the first investigation date, test plasters with 60 μl of 1% strength sodium lauryl sulfate (conventional synthetic surfactant frequently used in dermatological irritability research) were stuck onto in each case 3 test sites on the right and left forearm, and the epidermal lipids (baseline values before irritation) were obtained in vivo on the 4th test site on the right and left forearm. After 24 h, the test plasters were removed and all the previously irritated test sites were again irritated with sodium lauryl sulfate with occlusion for 24 h.
The intention of the cumulative irritation with sodium lauryl sulfate for 2×24 h on two consecutive days was initially to induce disturbance of the epidermal barrier, including damage to the epidermal lipid lamellae.
On the first investigation day after the irritation (Monday), the rinsing was preceded by in vivo delipidation in each case of one irritated test site on the forearm to be treated with carbonic acid and that to be treated with pure water.
Pure water was used on the comparison side for reasons of standardization. […] Use of pure water on the comparison side thus makes it possible to state that the effects which are found are attributable exclusively to the carbonic acid.
The eluate of solvent and epidermal lipids obtained in vivo was initially evaporated under nitrogen, and the epidermal lipids were then frozen. In this way, the samples for chromatography were initially collected from all the subjects during the investigations.
For the investigations by thin-layer chromatography, the 8 samples from each subject were thawed and, using different concentrations of the standard mixture, developed and detected on a thin-layer plate.
Determination of the lipid pattern before irritation, immediately after irritation and after use for one week and two weeks of carbonic acid or pure water makes it possible to make detailed statements about the regeneration of the epidermal barrier and any effects of the use of carbonic acid on individual lipid fractions of the epidermal barrier lipids. […]

For `O=C(O)O` [carbonic acid], the “increase in TEWL (comparison of medians) versus pure water” value ([1]; 2 weeks, 1 min rinse once a day, washing with shampoo solution twice a day, backs of hands) was “smaller increase in the TEWL”, the “TEWL 30 min after use versus test regions treated with pure water” value ([1]; 30 min after use, all days with the exception of the first day, P<0.05) was “significantly lower” and the “TEWL values versus test area treated with pure water” value ([1]; on days 3, 6, 7 and 8, values before daily use, WILCOXON paired differences test, P<0.05) was “significantly lower”. For the same compound, the “baseline values of the RSH and RSH 30 min after use versus pure water” value (irritated skin) was “higher (in some cases significantly higher)”, the “values for the ceramide fraction (peak areas) after the treatments versus baseline values” ([2]; after treatment for one and two weeks) was “significantly higher than the baseline values” and the “values for the ceramide fraction (peak areas) versus test area treated with pure water” value ([2]; after treatment for one week) was “higher, nearly significantly so (p<0.05)”. For the same compound, the “values for the ceramide fraction (peak areas) versus test area treated with pure water” value ([2]; after treatment for two weeks) was “significantly so (p<0.01)”.
